The values that follow come from patent US20230002375A1, “HYDROPYRAZINO[1,2-B]ISOQUINOLINE COMPOUNDS FOR THE TREATMENT OF AUTOIMMUNE DISEASE” (Hoffmann-La Roche Inc., priority 2019, published 2023).

Structures are written as SMILES.

The experiment has as its target T1, human TLR8 (Homo sapiens, UniProt Q9NR97).
T1 sequence (Q9NR97 27-1041): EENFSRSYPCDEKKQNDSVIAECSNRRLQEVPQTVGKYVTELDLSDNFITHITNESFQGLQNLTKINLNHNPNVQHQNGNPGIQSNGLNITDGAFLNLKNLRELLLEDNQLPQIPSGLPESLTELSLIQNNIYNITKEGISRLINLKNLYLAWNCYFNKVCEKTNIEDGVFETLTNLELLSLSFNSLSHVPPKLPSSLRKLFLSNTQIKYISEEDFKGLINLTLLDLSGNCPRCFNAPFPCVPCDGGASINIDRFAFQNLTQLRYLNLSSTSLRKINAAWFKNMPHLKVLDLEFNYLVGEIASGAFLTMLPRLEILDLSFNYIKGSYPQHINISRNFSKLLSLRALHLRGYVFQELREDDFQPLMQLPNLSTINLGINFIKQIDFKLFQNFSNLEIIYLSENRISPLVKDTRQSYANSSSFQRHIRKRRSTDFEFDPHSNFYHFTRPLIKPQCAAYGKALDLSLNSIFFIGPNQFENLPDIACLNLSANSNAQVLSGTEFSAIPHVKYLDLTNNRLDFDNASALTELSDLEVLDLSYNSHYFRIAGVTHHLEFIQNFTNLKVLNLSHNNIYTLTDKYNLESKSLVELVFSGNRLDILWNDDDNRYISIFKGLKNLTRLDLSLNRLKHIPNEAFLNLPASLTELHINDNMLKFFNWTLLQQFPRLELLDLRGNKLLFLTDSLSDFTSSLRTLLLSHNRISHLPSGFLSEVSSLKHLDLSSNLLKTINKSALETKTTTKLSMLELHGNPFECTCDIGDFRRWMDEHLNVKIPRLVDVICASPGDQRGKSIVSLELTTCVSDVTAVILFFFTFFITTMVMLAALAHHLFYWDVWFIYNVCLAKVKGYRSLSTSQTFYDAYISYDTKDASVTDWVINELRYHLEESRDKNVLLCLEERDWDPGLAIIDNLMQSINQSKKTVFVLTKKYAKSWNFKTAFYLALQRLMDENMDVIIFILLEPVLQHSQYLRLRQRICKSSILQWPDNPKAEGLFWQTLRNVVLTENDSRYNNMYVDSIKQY
Description: HEK293-Blue-hTLR-8 cells assay (SEAP reporter, R848 stimulation). It counts as cell-based. To be noted: HEK293-Blue-hTLR8 cells, R848, 20 hrs incubation; read-out: HEK/hTLR8 IC50. Here is the method:
The following tests were carried out in order to determine the activity of the compounds of formula (I), (Ia) or (Ib) in HEK293-Blue-hTLR-7/8/9 cells assay.
HEK293-Blue-hTLR-8 Cells Assay:
A stable HEK293-Blue-hTLR-8 cell line was purchased from InvivoGen (Cat.#: hkb-htlr8, San Diego, Calif., USA). These cells were originally designed for studying the stimulation of human TLR8 by monitoring the activation of NF-κB. A SEAP (secreted embryonic alkaline phosphatase) reporter gene was placed under the control of the IFN-β minimal promoter fused to five NF-κB and AP-1-binding sites. The SEAP was induced by activating NF-κB and AP-1 via stimulating HEK-Blue hTLR8 cells with TLR8 ligands. Therefore the reporter expression was declined by TLR8 antagonist under the stimulation of a ligand, such as R848, for incubation of 20 hrs. The cell culture supernatant SEAP reporter activity was determined using QUANTI-Blue™ kit (Cat.#: rep-qb1, Invivogen, San Diego, Ca, USA) at a wavelength of 640 nm, a detection medium that turns purple or blue in the presence of alkaline phosphatase.
HEK293-Blue-hTLR8 cells were incubated at a density of 250,000-450,000 cells/mL in a volume of 170 μL in a 96-well plate in Dulbecco's Modified Eagle's medium (DMEM) containing 4.5 g/L glucose, 50 U/mL penicillin, […], […], 2 mM L-glutamine, 10% (v/v) heat-inactivated fetal bovine serum with addition of 20 μL test compound in a serial dilution in the presence of final DMSO at 1% and 10 μL of 60 uM R848 in above DMEM, perform incubation under 37° C. in a CO2 incubator for 20 hrs. Then 20 μL of the supernatant from each well was incubated with 180 μL Quanti-blue substrate solution at 37° C. for 2 hrs and the absorbance was read at 620˜655 nm using a spectrophotometer. The signaling pathway that TLR8 activation leads to downstream NF-κB activation has been widely accepted, and therefore similar reporter assay was modified for evaluating TLR8 antagonist.
As for `C[C@@H]1CN(c2ccc(C#N)c3ncccc23)C[C@@H]2Cc3cc(OCCN(C)C)ccc3CN21` [Example 11, 5-[(4R,11aS)-9-[2-(dimethylamino)ethoxy]-4-methyl-1,3,4,6,11,11a-hexahydropyrazino[1,2-b]isoquinolin-2-yl]quinoline-8-carbonitrile], the IC50 came to 11.1 nM.
With `C[C@@H]1CN(c2ccc(C#N)c3ncccc23)C[C@@H]2Cc3ccc(N4CCOCC(N)C4)cc3CN21` (stereo partly drawn) [Example 1, 5-[(4R,11aS)-8-(6-amino-1,4-oxazepan-4-yl)-4-methyl-1,3,4,6,11,11a-hexahydropyrazino[1,2-b]isoquinolin-2-yl]quinoline-8-carbonitrile], the IC50 is 14.5 nM.
On to `C[C@@H]1CN(c2ccc(C#N)c3ncccc23)C[C@@H]2Cc3cc(N4CCN(C(=O)[C@]5(C)CCCN5)CC4)ccc3CN21` [Example 14, 5-[(4R,11aS)-4-methyl-9-[4-[(2S)-2-methylpyrrolidine-2-carbonyl]piperazin-1-yl]-1,3,4,6,11,11a-hexahydropyrazino[1,2-b]isoquinolin-2-yl]quinoline-8-carbonitrile], for which the IC50 was determined as 1.4 nM.
Consider `C[C@@H]1CN(c2ccc(C#N)c3ncccc23)C[C@@H]2Cc3cc(N4CC(N)CC4=O)ccc3CN21` (stereo partly drawn) [Example 16, 5-[(4R,11aS)-9-(4-amino-2-oxo-pyrrolidin-1-yl)-4-methyl-1,3,4,6,11,11a-hexahydropyrazino[1,2-b]isoquinolin-2-yl]quinoline-8-carbonitrile], for which the IC50 turned out to be 5.3 nM.
Take `C[C@@H]1CN(c2ccc(C#N)c3ncccc23)C[C@@H]2Cc3cc(N4CCN(C(=O)C(C)(C)N)CC4)ccc3CN21` [Example 13, 5-[(4R,11aS)-9-[4-(2-amino-2-methyl-propanoyl)piperazin-1-yl]-4-methyl-1,3,4,6,11,11a-hexahydropyrazino[1,2-b]isoquinolin-2-yl]quinoline-8-carbonitrile]: the IC50 amounted to 37.5 nM.
For `C[C@@H]1CN(c2ccc(C#N)c3ncccc23)C[C@@H]2Cc3ccc(OCCN(C)C)cc3CN21` [Example 5, 5-[(4R,11aS)-8-[2-(dimethylamino)ethoxy]-4-methyl-1,3,4,6,11,11a-hexahydropyrazino[1,2-b]isoquinolin-2-yl]quinoline-8-carbonitrile], the IC50 amounted to 9.2 nM.
Then `C[C@@H]1CN(c2ccc(C#N)c3ncccc23)C[C@@H]2Cc3cc(N4C[C@@H](F)[C@@H](N)C4)ccc3CN21` [Example 8, 5-[(4R,11aS)-9-[(3S,4R)-3-amino-4-fluoro-pyrrolidin-1-yl]-4-methyl-1,3,4,6,11,11a-hexahydropyrazino[1,2-b]isoquinolin-2-yl]quinoline-8-carbonitrile], with 21.5 nM.
For the compound `C[C@@H]1CN(c2ccc(C#N)c3ncccc23)C[C@@H]2Cc3cc(N4C[C@@H]5C[C@H]4CN5C(=O)C(C)(C)N)ccc3CN21` [Example 15, 5-[(4R,11aS)-9-[(1S,4S)-5-(2-amino-2-methyl-propanoyl)-2,5-diazabicyclo[2.2.1]heptan-2-yl]-4-methyl-1,3,4,6,11,11a-hexahydropyrazino[1,2-b]isoquinolin-2-yl]quinoline-8-carbonitrile], the IC50 was 4.7 nM.
Turning to `C[C@@H]1CN(c2ccc(C#N)c3ncccc23)C[C@@H]2Cc3cc(N4C[C@@H]5CNCCN5C4=O)ccc3CN21` (single isomer, unassigned) [Example 17A], the IC50 came out at 8 nM.
To `C[C@@H]1CN(c2ccc(C#N)c3ncccc23)C[C@@H]2Cc3cc(N4CC5CNCCC5C4=O)ccc3CN21` (stereo partly drawn) [Example 19, 5-[(4R,11aS)-4-methyl-9-(1-oxo-3a,4,5,6,7,7a-hexahydro-3H-pyrrolo[3,4-c]pyridin-2-yl)-1,3,4,6,11,11a-hexahydropyrazino[1,2-b]isoquinolin-2-yl]quinoline-8-carbonitrile] belongs 4.2 nM; to `C[C@@H]1CN(c2ccc(C#N)c3ncccc23)C[C@@H]2Cc3cc(N4CC5CCNCC5C4=O)ccc3CN21` (stereo partly drawn) [Example 18, 5-[(4R,11aS)-4-methyl-9-(3-oxo-3a,4,5,6,7,7a-hexahydro-1H-pyrrolo[3,4-c]pyridin-2-yl)-1,3,4,6,11,11a-hexahydropyrazino[1,2-b]isoquinolin-2-yl]quinoline-8-carbonitrile], 14.5 nM.
To `C[C@@H]1CN(c2ccc(C#N)c3ncccc23)C[C@@H]2Cc3cc(N[C@@H]4CNC[C@@H]4F)ccc3CN21` [Example 6, 5-[(4R,11aS)-4-methyl-9-[[(3R,4S)-4-fluoropyrrolidin-3-yl]amino]-1,3,4,6,11,11a-hexahydropyrazino[1,2-b]isoquinolin-2-yl]quinoline-8-carbonitrile] belongs 26.1 nM; to `CO[C@H]1CN(c2ccc3c(c2)C[C@H]2CN(c4ccc(C#N)c5ncccc45)C[C@@H](C)N2C3)C[C@H]1N` [Example 9, 5-[(4R,11aS)-9-[(3R,4S)-3-amino-4-methoxy-pyrrolidin-1-yl]-4-methyl-1,3,4,6,11,11a-hexahydropyrazino[1,2-b]isoquinolin-2-yl]quinoline-8-carbonitrile], 2.3 nM; to `C[C@@H]1CN(c2ccc(C#N)c3ncccc23)C[C@@H]2Cc3cc(N4CC5NCCOC5C4)ccc3CN21` (stereo in doubt) [Example 10, 5-[(4R,11aS)-9-[(4aS,7aS)-3,4,4a,5,7,7a-hexahydro-2H-pyrrolo[3,4-b][1,4]oxazin-6-yl]-4-methyl-1,3,4,6,11,11a-hexahydropyrazino[1,2-b]isoquinolin-2-yl]quinoline-8-carbonitrile], 1.5 nM.
To `CO[C@H]1CNC[C@H]1Nc1ccc2c(c1)C[C@H]1CN(c3ccc(C#N)c4ncccc34)C[C@@H](C)N1C2` [Example 7, 5-[(4R,11aS)-9-[[(3R,4S)-4-methoxypyrrolidin-3-yl]amino]-4-methyl-1,3,4,6,11,11a-hexahydropyrazino[1,2-b]isoquinolin-2-yl]quinoline-8-carbonitrile] belongs 13.5 nM; to `C[C@@H]1CN(c2ccc(C#N)c3ncccc23)C[C@@H]2Cc3ccc(NCCN4CC[C@H](O)C4)cc3CN21` [Example 2, 5-[(4R,11aS)-8-[2-[(3S)-3-hydroxypyrrolidin-1-yl]ethylamino]-4-methyl-1,3,4,6,11,11a-hexahydropyrazino[1,2-b]isoquinolin-2-yl]quinoline-8-carbonitrile], 4.2 nM.
On to `C[C@@H]1CN(c2ccc(C#N)c3ncccc23)C[C@@H]2Cc3cc(N4C[C@H]5CNCCN5C4=O)ccc3CN21` (single isomer, unassigned) [Example 17B], for which the IC50 was determined as 2.4 nM.
Then `C[C@@H]1CN(c2ccc(C#N)c3ncccc23)C[C@@H]2Cc3cc(OC[C@@H]4CCN4)ccc3CN21` [Example 12, 5-[(4R,11aS)-9-[[(2S)-azetidin-2-yl]methoxy]-4-methyl-1,3,4,6,11,11a-hexahydropyrazino[1,2-b]isoquinolin-2-yl]quinoline-8-carbonitrile], with 22.9 nM.
